# Target: T1, rat mGluR5 receptors (Rattus norvegicus, UniProt P31424)
# T1 construct: rat cerebro-cortical membrane preparation was used; from tissue; host or cells: rat cerebral cortex membranes
# Assay: mGluR5 receptor binding test, rat cerebro-cortical membrane preparation, [3H]-M-MPEP
# Conditions: affinity for rat mGluR5 receptors; [3H]-M-MPEP (2 nM) radioligand
# Protocol: The mGluR5 receptor binding was determined according to the modified method of Gasparini et. al. (Bioorg. Med. Chem. Lett., 2000, 12, 407). Based on the high homology between the human and rat mGluR5 receptors, rat cerebro-cortical membrane preparation was used to determine the binding characteristics of the reference compounds and novel compounds to the rat mGluR5. The A18 cell line expressing hmGluR5a (purchased from Euroscreen) was used to determine binding characteristics of the chemical compounds to the human mGluR5a receptor. [^3H]-M-MPEP (2 nM) was used as radioligand. The nonspecific binding was determined in the presence of 10 μM M-MPEP.
# T1 sequence (P31424 21-1203): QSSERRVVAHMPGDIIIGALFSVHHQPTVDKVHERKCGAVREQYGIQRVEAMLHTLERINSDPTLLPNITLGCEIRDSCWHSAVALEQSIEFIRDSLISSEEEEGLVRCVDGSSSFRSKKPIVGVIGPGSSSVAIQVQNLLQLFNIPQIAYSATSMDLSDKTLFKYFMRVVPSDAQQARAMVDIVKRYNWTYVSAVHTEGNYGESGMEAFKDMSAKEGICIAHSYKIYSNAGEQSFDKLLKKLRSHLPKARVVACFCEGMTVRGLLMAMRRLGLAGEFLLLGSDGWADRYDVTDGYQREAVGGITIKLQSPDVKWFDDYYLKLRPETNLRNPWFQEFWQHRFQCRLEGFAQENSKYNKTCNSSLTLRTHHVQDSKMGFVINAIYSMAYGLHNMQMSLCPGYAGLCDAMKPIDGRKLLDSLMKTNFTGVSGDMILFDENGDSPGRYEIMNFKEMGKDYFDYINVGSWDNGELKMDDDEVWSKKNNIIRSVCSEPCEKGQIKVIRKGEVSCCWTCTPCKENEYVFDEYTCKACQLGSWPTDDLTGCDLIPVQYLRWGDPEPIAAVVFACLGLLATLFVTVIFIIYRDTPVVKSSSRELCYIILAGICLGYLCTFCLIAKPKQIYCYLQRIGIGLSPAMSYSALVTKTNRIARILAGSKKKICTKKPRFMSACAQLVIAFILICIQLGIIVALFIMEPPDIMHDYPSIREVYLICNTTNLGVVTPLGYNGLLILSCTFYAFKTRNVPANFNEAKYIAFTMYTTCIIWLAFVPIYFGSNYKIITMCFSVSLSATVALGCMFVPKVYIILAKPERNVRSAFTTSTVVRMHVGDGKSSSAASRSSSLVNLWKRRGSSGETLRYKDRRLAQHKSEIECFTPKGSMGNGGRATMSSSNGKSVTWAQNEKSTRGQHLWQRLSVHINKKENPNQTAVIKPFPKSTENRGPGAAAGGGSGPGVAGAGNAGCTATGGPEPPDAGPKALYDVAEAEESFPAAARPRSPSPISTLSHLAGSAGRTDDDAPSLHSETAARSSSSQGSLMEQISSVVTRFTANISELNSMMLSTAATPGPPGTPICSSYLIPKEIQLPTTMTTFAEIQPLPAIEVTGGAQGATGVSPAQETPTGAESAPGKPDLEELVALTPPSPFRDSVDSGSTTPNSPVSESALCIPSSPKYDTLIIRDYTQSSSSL
row,Compound,Ki [µM]
1,COc1ccc(S(=O)(=O)c2cnc3ccc(F)cc3c2N2CCC(C)CC2)cc1 [Compound 142],< 0.2
2,COc1ccc(S(=O)(=O)c2cnc3ccc(F)cc3c2N2CCC(C)CC2)cc1OC [Compound 143],0.2 to 0.5
3,COc1cccc(S(=O)(=O)c2cnc3ccc(F)cc3c2N2CCC(C)CC2)c1 [Compound 145],< 0.2
4,Cc1ccc(S(=O)(=O)c2cnc3ccc(F)cc3c2N2CCC(C)CC2)cc1C [Compound 146],< 0.2
5,COc1ccc(S(=O)(=O)c2cnc3ccc(F)cc3c2N2CCC(C)CC2)cc1Cl [Compound 147],< 0.2
6,Cc1ccc2ncc(S(=O)(=O)c3cc(Cl)cc(Cl)c3)c(N3CCC(C)CC3)c2c1 [Compound 153],0.2 to 0.5
7,Cc1ccc2ncc(S(=O)(=O)c3ccc(F)cc3)c(N3CCC(C)CC3)c2c1 [Compound 156],< 0.2
8,COc1ccc(S(=O)(=O)c2cnc3ccc(C)cc3c2N2CCC(C)CC2)cc1 [Compound 157],0.2 to 0.5
9,Cc1ccc2ncc(S(=O)(=O)c3cccc(F)c3)c(N3CCC(C)CC3)c2c1 [Compound 159],< 0.2
10,COc1cccc(S(=O)(=O)c2cnc3ccc(C)cc3c2N2CCC(C)CC2)c1 [Compound 160],< 0.2
11,Cc1ccc2ncc(S(=O)(=O)c3ccc(C)c(C)c3)c(N3CCC(C)CC3)c2c1 [Compound 161],< 0.2
12,COc1ccc(S(=O)(=O)c2cnc3ccc(C)cc3c2N2CCC(C)CC2)cc1Cl [Compound 162],< 0.2
13,Cc1ccc2ncc(S(=O)(=O)c3ccc(Cl)c(Cl)c3)c(N3CCC(C)CC3)c2c1 [Compound 164],< 0.2
14,Cc1ccc2ncc(S(=O)(=O)c3ccc(C)c(F)c3)c(N3CCC(C)CC3)c2c1 [Compound 165],< 0.2
15,Cc1ccc2ncc(S(=O)(=O)c3ccc(F)c(Cl)c3)c(N3CCC(C)CC3)c2c1 [Compound 169],< 0.2
16,CC1CCN(c2c(S(=O)(=O)c3cc(F)cc(F)c3)cnc3cc(F)ccc23)CC1 [Compound 170],0.2 to 0.5
17,COc1cccc(S(=O)(=O)c2cnc3cc(F)ccc3c2N2CCC(C)CC2)c1 [Compound 175],< 0.2
18,CC1CCN(c2c(S(=O)(=O)c3ccc(Cl)c(Cl)c3)cnc3cc(F)ccc23)CC1 [Compound 176],< 0.2
19,CC1CCN(c2c(S(=O)(=O)c3cc(Cl)cc(Cl)c3)cnc3cc(F)ccc23)CC1 [Compound 177],< 0.2
20,CC1CCN(c2c(S(=O)(=O)c3ccc(C#N)cc3)cnc3cc(F)ccc23)CC1 [Compound 180],< 0.2
21,Cc1cc(C)cc(S(=O)(=O)c2cnc3cc(F)ccc3c2N2CCC(C)CC2)c1 [Compound 184],0.2 to 0.5
22,COc1ccc(S(=O)(=O)c2cnc3cc(F)ccc3c2N2CCC(C)CC2)cc1 [Compound 185],< 0.2
23,CC1CCN(c2c(S(=O)(=O)c3ccc(F)c(F)c3)cnc3cc(F)ccc23)CC1 [Compound 186],< 0.2
24,CC1CCN(c2c(S(=O)(=O)c3ccc(F)c(Cl)c3)cnc3cc(F)ccc23)CC1 [Compound 187],< 0.2
25,Cc1ccc(S(=O)(=O)c2cnc3cc(Cl)ccc3c2N2CCC(C)CC2)cc1 [Compound 191],< 0.2
26,CC1CCN(c2c(S(=O)(=O)c3ccccc3)cnc3cc(Cl)ccc23)CC1 [Compound 194],< 0.2
27,"CC1CCN(c2c(S(=O)(=O)c3ccc(Cl)cc3)cnc3cc(Cl)ccc23)CC1 [Compound 195, 7-Chloro-3-(4-chloro-benzenesulfonyl)-4-(4-methyl-piperidin-1-yl)-quinoline]",< 0.2

# Further lines, results first:
row,Ki [µM],Compound
1,0.2 to 0.5,CC1CCN(c2c(S(=O)(=O)c3cccc(F)c3)cnc3ccc(F)cc23)CC1 [Compound 144]
2,< 0.2,CC1CCN(c2c(S(=O)(=O)c3cccc(Cl)c3)cnc3ccc(F)cc23)CC1 [Compound 148]
3,< 0.2,CC1CCN(c2c(S(=O)(=O)c3ccc(Cl)c(Cl)c3)cnc3ccc(F)cc23)CC1 [Compound 149]
4,0.2 to 0.5,CC1CCN(c2c(S(=O)(=O)c3ccc(C#N)cc3)cnc3ccc(F)cc23)CC1 [Compound 150]
5,< 0.2,Cc1cc(C)cc(S(=O)(=O)c2cnc3ccc(F)cc3c2N2CCC(C)CC2)c1 [Compound 151]
6,< 0.2,CC1CCN(c2c(S(=O)(=O)c3ccc(F)c(F)c3)cnc3ccc(F)cc23)CC1 [Compound 152]
7,0.2 to 0.5,Cc1ccc2ncc(S(=O)(=O)c3cc(F)cc(F)c3)c(N3CCC(C)CC3)c2c1 [Compound 154]
8,> 0.5,Cc1ccc2ncc(S(=O)(=O)c3cccc(C#N)c3)c(N3CCC(C)CC3)c2c1 [Compound 155]
9,0.2 to 0.5,Cc1ccc2ncc(S(=O)(=O)c3ccc(Cl)cc3)c(N3CCC(C)CC3)c2c1 [Compound 158]
10,< 0.2,Cc1ccc2ncc(S(=O)(=O)c3cccc(Cl)c3)c(N3CCC(C)CC3)c2c1 [Compound 163]
11,0.2 to 0.5,Cc1ccc2ncc(S(=O)(=O)c3ccc(C#N)cc3)c(N3CCC(C)CC3)c2c1 [Compound 166]
12,< 0.2,Cc1ccc2ncc(S(=O)(=O)c3ccc(C)c(Cl)c3)c(N3CCC(C)CC3)c2c1 [Compound 167]
13,0.2 to 0.5,Cc1cc(C)cc(S(=O)(=O)c2cnc3ccc(C)cc3c2N2CCC(C)CC2)c1 [Compound 168]
14,< 0.2,Cc1ccc(S(=O)(=O)c2cnc3cc(F)ccc3c2N2CCC(C)CC2)cc1 [Compound 171]
15,0.2 to 0.5,CC1CCN(c2c(S(=O)(=O)c3ccc(F)cc3)cnc3cc(F)ccc23)CC1 [Compound 172]
16,< 0.2,CC1CCN(c2c(S(=O)(=O)c3ccccc3)cnc3cc(F)ccc23)CC1 [Compound 173]

row,Ki [µM],Compound
1,< 0.2,CC1CCN(c2c(S(=O)(=O)c3ccc(Cl)cc3)cnc3cc(F)ccc23)CC1 [Compound 174]
2,< 0.2,Cc1ccc(S(=O)(=O)c2cnc3cc(F)ccc3c2N2CCC(C)CC2)cc1F [Compound 178]
3,< 0.2,CC1CCN(c2c(S(=O)(=O)c3cccc(C#N)c3)cnc3cc(F)ccc23)CC1 [Compound 179]
4,< 0.2,Cc1ccc(S(=O)(=O)c2cnc3cc(F)ccc3c2N2CCC(C)CC2)cc1Cl [Compound 181]
5,< 0.2,COc1ccc(S(=O)(=O)c2cnc3cc(F)ccc3c2N2CCC(C)CC2)cc1OC [Compound 182]
6,< 0.2,Cc1ccc(S(=O)(=O)c2cnc3cc(F)ccc3c2N2CCC(C)CC2)cc1C [Compound 183]
7,< 0.2,CC1CCN(c2c(S(=O)(=O)c3cc(Cl)cc(Cl)c3)cnc3cc(Cl)ccc23)CC1 [Compound 188]
8,< 0.2,CC1CCN(c2c(S(=O)(=O)c3cc(F)cc(F)c3)cnc3cc(Cl)ccc23)CC1 [Compound 189]
9,< 0.2,CC1CCN(c2c(S(=O)(=O)c3cccc(C#N)c3)cnc3cc(Cl)ccc23)CC1 [Compound 190]
10,< 0.2,CC1CCN(c2c(S(=O)(=O)c3ccc(F)cc3)cnc3cc(Cl)ccc23)CC1 [Compound 192]
11,0.2 to 0.5,COc1ccc(S(=O)(=O)c2cnc3cc(Cl)ccc3c2N2CCC(C)CC2)cc1 [Compound 193]
12,< 0.2,COc1ccc(S(=O)(=O)c2cnc3cc(Cl)ccc3c2N2CCC(C)CC2)cc1OC [Compound 196]
13,< 0.2,CC1CCN(c2c(S(=O)(=O)c3cccc(F)c3)cnc3cc(Cl)ccc23)CC1 [Compound 197]
14,< 0.2,COc1cccc(S(=O)(=O)c2cnc3cc(Cl)ccc3c2N2CCC(C)CC2)c1 [Compound 198]
15,< 0.2,Cc1ccc(S(=O)(=O)c2cnc3cc(Cl)ccc3c2N2CCC(C)CC2)cc1C [Compound 199]
16,< 0.2,COc1ccc(S(=O)(=O)c2cnc3cc(Cl)ccc3c2N2CCC(C)CC2)cc1Cl [Compound 200]

# Source: patent US20090270371A1, “QUINOLINE DERIVATIVES USEFUL IN THE TREATMENT OF MGLUR5 RECEPTOR-MEDIATED DISORDERS” (priority 2005, published 2009)
